Laboratory results published in the NIST ThermoML archive (doi:10.1016/j.jct.2019.06.018).
± gives the expanded uncertainty stated by the source.

How the values were obtained:
[1] = Molar enthalpy of transition or fusion; conditions: Crystal; DSC
[2] = Crystal; DSC

In the case of `CC1=NN(c2ccccc2)C(=O)C1` [Edaravone], the “Molar enthalpy of transition or fusion” value [1] is reported as 7.08 ± 0.956 kcal/mol and the Triple point temperature [2] is reported as 400.15 ± 1.2 K.
